Where two headings read alike, the source gives them in different places.
How the values were obtained:
[1] = Cytotoxicity assay (XTT) in Huh-7 cells; assay type: cell-based; conditions: human
Method: In parallel, cytotoxicity assays were performed. Monolayers of 1.5×10^4 cells in 96-well plates were treated for 3 days with various concentrations (semi-log dilutions from 1,000 to 10 μM) of the antiviral drugs. Then, 5 mg/mL 2,3-bis-(2-methoxy-4-nitro-5-sulfophenyl)-2H-tetrazolium-5-carboxanilide (XTT) in DMEM was added to the cells in the presence of 0.01% of N-methyl dibenzopyrazine methyl sulfate (PMS).

SARS-COV-2 [2] = assay: SARS-COV-2 viral RNA synthesis in Vero cells (real time RT-PCR); assay type: cell-based
SARS-COV-2 [3] = assay: SARS-COV-2 viral RNA synthesis in HuH-7 cells (real time RT-PCR); assay type: cell-based
SARS-COV-2 [4] = conditions: for SI: CC50/EC50
SARS-COV-2 [5] = assay: Combination with SARS-COV-2 nsp14 (exonuclease) inhibitors in Calu-3 cells, infectious virus titers; assay type: cell-based; conditions: for EC99 mean / EC50 / EC90: Calu-3, alone or in combination as labelled; for effect of co-treatment with raltegravir or dolutegravir (iEXO) on inhibition of SARS-COV-2: drug 10 μM, raltegravir or dolutegravir 5 μM
[6] = Cytotoxicity assay (XTT) in Calu-3 cells; assay type: cell-based, human; conditions: human, Table 6
Method: (§1) In parallel, cytotoxicity assays were performed.

Calu-3 cells = assay: Cytotoxicity assay (XTT) in Calu-3 cells; assay type: cell-based, human; conditions: Calu-3, daily treatment
Method: as §1

[7] = Cytotoxicity assay (XTT) in Vero cells; assay type: cell-based; conditions: African green monkey
Method: as §1

[8] = system: Salmonella typhimirium TA 97a, TA 98, TA 100, TA 102 and TA 1535; assay: Bacterial reverse mutation (Ames) test; conditions: positive control 1.5 μg/plate
[9] = Severe acute respiratory syndrome coronavirus 2, Calu-3, 72 h, Calu-3 (MOI 0.5 72 h), daily treatment
[10] = Severe acute respiratory syndrome coronavirus 2, Calu-3, Table 6, Calu-3, daily treatment
[11] = Severe acute respiratory syndrome coronavirus 2, Calu-3, Table 6, Calu-3, single treatment
[12] = Table 6, Calu-3, daily treatment
[13] = Table 6, Calu-3, single treatment
[14] = Severe acute respiratory syndrome coronavirus 2
[15] = Severe acute respiratory syndrome coronavirus 2, Calu-3, 72 h, Calu-3 (MOI 0.5 72 h), single moment treatment

C/C(=C\CNc1ncnc2[nH]cnc12)CO [MB-907, zeatin]
CC50 at 3 days [1]: 600 µM | EC50 (SARS-COV-2 [2]; Severe acute respiratory syndrome coronavirus 2, Vero, 24 h): 6 µM | EC50 (SARS-COV-2 [3]; Severe acute respiratory syndrome coronavirus 2, Huh-7, 48 h): 0.05 µM

CC(C)C(=O)OC[C@H]1O[C@@H](n2ccc(NO)nc2=O)[C@H](O)[C@@H]1O [MK-4482, N-4-hydroxycytidine-5′-isopropyl ester, reference compound]
efficiency impaired due to daily treatment (SARS-COV-2 [4]; Calu-3): 2 times | SI (SARS-COV-2 [4]; Calu-3, daily treatment): 2900 µM | EC50 (SARS-COV-2 [4]; [9]): 0.02 µM | EC90 (SARS-COV-2 [4]; [9]): 8.6 µM | EC50 (SARS-COV-2 [4]; [10]): 0.02 µM | EC90 (SARS-COV-2 [4]; [10]): 8.6 µM | EC50 (SARS-COV-2 [4]; [11]): 0.72 µM | EC90 (SARS-COV-2 [4]; [11]): 3.4 µM | SI (SARS-COV-2 [4]; [12]): 2,900 | SI (SARS-COV-2 [4]; [13]): 80 | EC99 mean (SARS-COV-2 [5]): 9 µM | EC50 (SARS-COV-2 [5]; [14]): 0.8 µM | EC90 (SARS-COV-2 [5]; [14]): 7 µM | CC50 at 3 days ([6]; Calu-3, daily treatment): 58 µM | CC50 at 3 days ([6]; Calu-3, single treatment): 58 µM | CC50 (Calu-3 cells): 58 µM

COC(=O)N[C@H](C(=O)N1CCC[C@H]1C(=O)Nc1ccc([C@@H]2CC[C@@H](c3ccc(NC(=O)[C@@H]4CCCN4C(=O)[C@@H](NC(=O)OC)C(C)C)cc3)N2c2ccc(C(C)(C)C)cc2)cc1)C(C)C [Ombitasvir]
EC99 mean (SARS-COV-2 [5]): 18 µM | EC50 (SARS-COV-2 [5]; [14]): 0.4 µM | EC90 (SARS-COV-2 [5]; [14]): 3.3 µM

COC(=O)N[C@H](C(=O)N1CCC[C@H]1c1nc2cc([C@H]3CC[C@H](c4cc5nc([C@@H]6CCCN6C(=O)[C@@H](NC(=O)OC)[C@@H](C)OC)[nH]c5cc4F)N3c3cc(F)c(N4CCC(c5ccc(F)cc5)CC4)c(F)c3)c(F)cc2[nH]1)[C@@H](C)OC [Pibrentasvir]
EC99 mean (SARS-COV-2 [5]): 19 µM | EC50 (SARS-COV-2 [5]; [14]): 0.7 µM | EC90 (SARS-COV-2 [5]; [14]): 4.2 µM

Cc1nnc(C(=O)NC(C)(C)c2nc(C(=O)NCc3ccc(F)cc3)c(O)c(=O)n2C)o1 [RTG, raltegravir]
EC50 (SARS-COV-2 [5]; [14]): 4.8 µM | effect on SARS-COV-2 replication (SARS-COV-2 [5]; calu-3, 5 μM): marginal effects

CCC(CC)COC(=O)[C@H](C)N[P@](=O)(OC[C@H]1O[C@@](C#N)(c2ccc3c(N)ncnn23)[C@H](O)[C@@H]1O)Oc1ccccc1 [Remdesivir, reference compound]
CC50 at 3 days [1]: 280 µM | EC50 (SARS-COV-2 [2]; Severe acute respiratory syndrome coronavirus 2, Vero (MOI 0.01 24 h), read-out: EC50): 0.7 µM | SI (SARS-COV-2 [2]; Vero, CC50/EC50): 757 | SI (SARS-COV-2 [4]; Calu-3, single moment treatment): 2300 | EC50 (SARS-COV-2 [4]; [9]): 0.01 µM | EC90 (SARS-COV-2 [4]; [9]): 0.2 µM | EC50 (SARS-COV-2 [4]; [15]): 0.15 µM | EC90 (SARS-COV-2 [4]; [15]): 0.4 µM | EC50 (SARS-COV-2 [4]; [10]): 0.01 µM | EC90 (SARS-COV-2 [4]; [10]): 0.2 µM | EC50 (SARS-COV-2 [4]; [11]): 0.15 µM | EC90 (SARS-COV-2 [4]; [11]): 0.4 µM | SI (SARS-COV-2 [4]; [12]): 3,3000 | SI (SARS-COV-2 [4]; [13]): 2.300 | CC50 at 3 days [7]: 530 µM | EC99 mean (SARS-COV-2 [5]): 1.1 µM | EC50 (SARS-COV-2 [5]; [14]): 0.09 µM | EC90 (SARS-COV-2 [5]; [14]): 0.4 µM | CC50 at 3 days ([6]; Calu-3, daily treatment): 330 µM | CC50 at 3 days ([6]; Calu-3, single treatment): 350 µM | SI (SARS-COV-2 [3]; Huh-7, CC50/EC50): 46666 | EC50 (SARS-COV-2 [3]; Severe acute respiratory syndrome coronavirus 2, Huh-7 (MOI 0.1 48 h), read-out: EC50): 0.006 µM

C[C@H](Cn1cnc2c(N)ncnc21)OCP(=O)(O)O [Tenofovir]
EC50 (SARS-COV-2 [5]): 4.3 µM | effect of co-treatment with raltegravir or dolutegravir (iEXO) on inhibition of SARS-COV-2 (SARS-COV-2 [5]; calu-3): enhanced efficiency

[N-]=[N+]=[N-] [sodium azide, reference compound]
Mutagenicity ([8]; TA 100 −S9): + | Mutagenicity ([8]; TA 1535 −S9): +

CC(C)OC(=O)[C@H](C)N[P@](=O)(OC[C@H]1O[C@@H](n2ccc(=O)[nH]c2=O)[C@](C)(F)[C@@H]1O)Oc1ccccc1 [sofosbuvir]
effect of co-treatment with raltegravir or dolutegravir (iEXO) on inhibition of SARS-COV-2 (SARS-COV-2 [5]; calu-3): enhanced efficiency
